Tested on: T1, SARM1 TIR domain (DmrB–TIR)
T1 construct: the SARM1 TIR domain was constructed into an Fkbp variant (DmrB); expressed in transfected cells; host or cells: 293T cells
Experiment: DmrB–TIR dimerization (AP20187)-induced cell death in 293T cells
Assay type: cell-based
Conditions: 24 h after AP20187 addition
Description: To verify the inhibitory mechanism of SARM1 owing to the TIR domain, the SARM1 TIR domain was constructed into an Fkbp variant (DmrB) at its N terminus, which undergoes homodimerization in the presence of AP20187 (a rapamycin analog) (Figure 2A).
Figure 2 Design and characterization of the toxic effects of the SARM1 TIR domain in 293T cells using different compounds. (A) Scheme for TIR dimerization to verify the TIR domain using an Frb–Fkbp moiety fusion. (B) Compounds used and NR display prevention of DmrB–TIR-dependent death 24 h after AP20187 addition.

With `NC(=O)c1ccc[n+]([C@@H]2O[C@H](CO)[C@@H](O)[C@H]2O)c1` [NR] the “prevention of DmrB–TIR-dependent cell death (cell viability)” value was “cell death caused by TIR dimerization was alleviated”.

Source: paper PMC11428815, “Characterization of Novel SARM1 Inhibitors for the Treatment of Chemotherapy-Induced Peripheral Neuropathy” (Biomedicines, 2024)
